Test results: patent publication US4085224A, “Method of increasing feed utilization” (Eli Lilly and Company, priority 1976, dated 1978)

Columns and labels:
[1] = tested on: Staphylococcus aureus (H-Heatley) NRRL B-314; assay: turbidometric assay on semiautomated system (Autoturb), relative gram-positive activity; assay type: cell-based; conditions: relative to A-28086 factor A (standard); nutrient broth pH 7, four hours at 37° C.
Experimental: The C2 -C6 -acyl ester derivatives of A-28086 factor A also have antibacterial and antifungal activity. In one aspect, these derivatives have increased gram-positive activity. The relative gram-positive activities of certain of these derivatives were compared with the activity of factor A. The compounds were tested by turbidometric assay on a semiautomated system (Autoturb® microbiological assay system, Elanco) described by N. R. Kuzel and F. W. Kavanaugh in J. Pharmaceut. Sci. 60 (5), 764 and 767 (1971). In testing the A-28086 antibiotics, the following test parameters were used: Staphylococcus aureus (H-Heatley) NRRL B-314 in a nutrient broth medium (pH 7), incubated for four hours at 37° C. Test samples and the standard were dissolved in methanol-water (10:90). The standard, A-28086 factor A, was presented to the Autoturb® carrousel at concentrations of 2, 3, 4, and 5 mcg/ml. Test compounds were diluted to contain approximately 3 or 4 mcg of activity per ml, as presented to the carrousel. The relative activities of test compounds, as compared to that of the standard, are given below: […]

rumen fluid = assay: in vitro rumen fluid volatile fatty acid production; set-up: species or system steer; conditions: 1 ppm in rumen fluid, 16 hours at 38° C.
From the text: As discussed hereinabove, efficiency of carbohydrate utilization in ruminants is increased by treatments which stimulate the amimal's rumen flora to produce propionate compounds rather than acetate or butyrate compounds. The efficiency of feed use can be monitored by observing the production and concentration of propionate compounds in the rumen, using the following methods:
Remen fluid is obtained from a steer with a surgically-installed fistula opening into the rumen. The steer is maintained on a high-grain ration. A sample of rumen fluid is strained through four layers of cheesecloth, and the filtrate is collected. The particulate matter retained by the cheesecloth is resuspended in enough physiological buffer to return it to the original volume of the rumen fluid, and this suspension is strained again. The buffer used has the following composition:
The two filtrates are combined and allowed to stand until particulate matter separates to the top. The clear layer is separated, diluted with the same buffer (1:1) and then adjusted to between pH 6.8 to 7.0.
The diluted rumen fluid (10 ml) is placed in a 25-ml flask with 40 mg of the above-described feed, an additional 1 mg of soybean protein, and the compound to be tested. Four replicate flasks are used per treatment. Two sets of four control flasks each are also employed. A zero-time control and an incubated 16-hour control are used. All test flasks are incubated for 16 hours at 38° C. […] The samples are allowed to settle, and the supernatants are analyzed by gas chromatography for propionate, acetate, and butyrate compounds.

Compound | Relative G+ Activity [1] | Ratio of Treated to Control, Molar % acetate (rumen fluid) | Ratio of Treated to Control, Molar % butyrate (rumen fluid) | Ratio of Treated to Control, Molar % propionate (rumen fluid) | Ratio of Treated to Control, Total VFA mM/l (rumen fluid)
CCC(=O)OC1C=CC2(OC(C(CC)C(=O)C(C)C(O)C(C)C3OC(C(CC)C(=O)O)C(C)CC3C)C(C)CC2C)OC12CCC(C)(C1CCC(O)(CC)C(C)O1)O2 (stereo not shown) | 7 | 0.90 | 0.68 | 1.73 | 1.25
CCCCC(=O)OC1C=CC2(OC(C(CC)C(=O)C(C)C(O)C(C)C3OC(C(CC)C(=O)O)C(C)CC3C)C(C)CC2C)OC12CCC(C)(C1CCC(O)(CC)C(C)O1)O2 (stereo not shown) | 14 | 0.92 | 0.79 | 1.55 | 1.18
CCCC(=O)OC1C=CC2(OC(C(CC)C(=O)C(C)C(O)C(C)C3OC(C(CC)C(=O)O)C(C)CC3C)C(C)CC2C)OC12CCC(C)(C1CCC(O)(CC)C(C)O1)O2 (stereo not shown) | 8 | 0.91 | 0.81 | 1.56 | 1.19
CCCCCC(=O)OC1C=CC2(OC(C(CC)C(=O)C(C)C(O)C(C)C3OC(C(CC)C(=O)O)C(C)CC3C)C(C)CC2C)OC12CCC(C)(C1CCC(O)(CC)C(C)O1)O2 (stereo not shown) | 20 | 0.86 | 0.97 | 1.57 | 0.99
CCC(C(=O)O)C1OC(C(C)C(O)C(C)C(=O)C(CC)C2OC3(C=CC(OC(C)=O)C4(CCC(C)(C5CCC(O)(CC)C(C)O5)O4)O3)C(C)CC2C)C(C)CC1C (stereo not shown) [A-28086 factor A acetyl ester derivative] | 2.5 | 0.79 | 0.76 | 2.04 | 1.04
